Test results taken from publication PMC4413184, “Seco-Taondiol, an Unusual Meroterpenoid from the Chilean Seaweed Stypopodium flabelliforme and Its Gastroprotective Effect in Mouse Model” (Marine Drugs, 2015).
Entries after “also recorded” stand apart in the source; their conditions may differ. Marks after values point to notes of the source that are not given here.

How the values were obtained:
[1] = Cytotoxicity MTT assay, AGS cells; format: cell-based, human; conditions: human, AGS cells (human gastric epithelial cells), 48 h incubation
Protocol: (§1) The cytotoxic assay expressed as cell viability was conducted using MTT assay method. Cells at a density of 3 × 10^4 of MRC fibroblasts or AGS cells were plated in 96-well culture dishes. Compounds were assayed at concentrations ranging from 0 up to 500 μM. Incubated at 37 °C in humidified CO2 incubator for 24 h. After incubation, various concentrations in DMSO solvent of the compounds were added. Each compound was tested in quadruplicate and repeated three times. After 48 h incubation, assay was stop by adding MTT reagent (3-(4,5dimethylthiazol-2-yl)-2,5-diphenyltetrazolium bromide) and the incubation continue for next 4 h before the addition of MTT stop solution containing sodium dodecyl sulphate (SDS), the incubation continue for next 24 h. optical density was measured using microplate reader at 550 nm. IC50 value obtained from the plotted graph between percentage live cells compared to control.

[2] = Cytotoxicity MTT assay, fibroblasts; format: cell-based, human; conditions: human, MRC fibroblasts, 48 h incubation
Protocol: as §1

[3] = test system: HCl/EtOH-induced gastric lesions in mice; experiment: HCl/EtOH-induced gastric lesions model in mice; format: in vivo; conditions: for gastroprotective activity (in words): HCl/EtOH-induced gastric lesions model in mice; for Lesion Index (mm) / % Lesion Reduction / inhibition of the appearance of gastric mucosal lesions: mice; for Lesion Index (mm) / % Lesion Reduction: oral, title: 30 mg/kg, method: meroditerpenoids 40 mg/kg, lansoprazole 30 mg/kg; for Lesion Index (mm): mean ± sd, n = 7; for % Lesion Reduction: versus control; for inhibition of the appearance of gastric mucosal lesions: oral administration at 40 mg/kg
Protocol: The gastroprotective activity of the compounds 4a–5a, and 9, 11 was assessed in the HCl/EtOH-induced lesion model as described previously. Mice were randomly distributed into groups of seven animals each and fasted for 12 h with free access to water prior to the experiment. Fifty min after oral administration of the meroditerpenoids (40 mg/kg), lansoprazole (30 mg/kg) or 1% Tween 80 (10 mL/kg), all groups were orally treated with 0.2 mL of a solution containing 0.3 M HCl/60% ethanol (HCl/EtOH) for gastric lesion induction. Animals were sacrificed 1 h after the administration of HCl/EtOH, and the stomachs were excised and inflated by injection of saline (1 mL). The ulcerated stomachs were fixed in 5% formalin for 30 min and opened along the greater curvature. […] The length (mm) of each lesion was measured, and the lesion index was expressed as the sum of the length of all lesions.

[4] = test system: HCl/EtOH-induced gastric lesions in indomethacin-pretreated mice; experiment: HCl/EtOH-induced gastric lesions in indomethacin-pretreated mice; format: in vivo; conditions: indomethacin 30 mg/kg s.c. 30 min before, 1a 35 mg/kg, 3a 40 mg/kg oral
Protocol: (§2) To investigate the involvement of endogenous prostaglandins in the gastroprotective effect of 1a and 3a, indomethacin s.c. (30 mg/kg, an inhibitor of the prostaglandin synthesis was dissolved in 5% NaHCO3) was injected 30 min before administration of 1a, 3a or vehicle (IND-treated). Fifty min after oral administration of 1a (35 mg/kg), 3a (40 mg/kg) or vehicle, all groups were orally treated with 0.2 mL of a solution containing 0.3 M HCl/60% ethanol (HCl/EtOH) for gastric lesion induction. Animals were sacrificed 1 h after the administration of HCl/EtOH, and the stomachs were excised and inflated by injection of saline (1 mL). The gastric mucosal lesions were induced and the length of gastric lesions was measured as described above.

[5] = test system: HCl/EtOH-induced gastric lesions in NEM-pretreated mice; experiment: HCl/EtOH-induced gastric lesions in N-ethylmaleimide (NEM)-pretreated mice; format: in vivo; conditions: NEM 10 mg/kg s.c. 30 min before, 1a 35 mg/kg, 3a 40 mg/kg oral
Protocol: as §2, with “sulfhydryl compounds (SHs)” for “endogenous prostaglandins”, “NEM” for “indomethacin”, “(10” for “(30”, “SH blocker” for “inhibitor of the prostaglandin synthesis”, “saline)” for “5% NaHCO3)”, “(NEM-treated).” for “(IND-treated).”

[6] = test system: HCl/EtOH-induced gastric lesions in L-NAME-pretreated mice; experiment: HCl/EtOH-induced gastric lesions in L-NAME-pretreated mice; format: in vivo; conditions: L-NAME 70 mg/kg i.p. 30 min before, 1a 35 mg/kg, 3a 40 mg/kg oral
Protocol: as §2, with “nitric oxide (NO)” for “prostaglandins”, “L-NAME i.p. (70” for “indomethacin s.c. (30”, “NO synthase” for “the prostaglandin synthesis”, “saline)” for “5% NaHCO3)”, “(L-NAME-treated).” for “(IND-treated).”

[7] = test system: HCl/EtOH-induced gastric lesions in RR-pretreated mice; experiment: HCl/EtOH-induced gastric lesions in ruthenium red (RR)-pretreated mice; format: in vivo; conditions: RR 3.5 mg/kg s.c. 30 min before; 1a 35 mg/kg, 3a 40 mg/kg oral
Protocol: as §2, with “vanilloid receptor” for “endogenous prostaglandins”, “RR” for “indomethacin”, “(3.5” for “(30”, “a vanilloid receptor antagonist” for “an inhibitor of the prostaglandin synthesis”, “saline)” for “5% NaHCO3)”, “(RR-treated).” for “(IND-treated).”

[8] = test system: HCl/EtOH-induced gastric lesions in mice; parameters: method as in PMID 21922901; conditions: cited from earlier work
[9] = test system: human fibroblast (MRC fibroblasts); experiment: Cytotoxicity MTT assay, fibroblasts; format: cell-based; conditions: 48 h incubation
Protocol: as §1

[10] = test system: human epithelial gastric cells (AGS); experiment: Cytotoxicity MTT assay, AGS cells; format: cell-based; conditions: 48 h incubation
Protocol: as §1

SMILES | IC50 at 48 h [1] [µM] | IC50 at 48 h [2] [µM] | gastroprotective activity (in words) [3] | Lesion Index (mm) [3] [mm] | % Lesion Reduction [3] | other results
CC(=O)Oc1c(Cl)c(C)c2c(c1OC(C)=O)CC1(O2)C(C)CCC2C3(C)CCC(OC(C)=O)C(C)(C)C3CCC21C (stereo not drawn) [Compound 8, 4'-chlorostypotriol triacetate] | 11 ± 1 | 12 ± 1 | – | – | – | –
CC(=O)Oc1cc(C)c2c(c1OC(C)=O)CC1(O2)C(C)CCC2C3(C)CCC(OC(C)=O)C(C)(C)C3CCC21C (stereo not drawn) [Compound 9, stypotriol triacetate] | 14 ± 3 | 21 ± 5 | inactive | 36.4 ± 5.2 | 12% | –
CC(C)=CCC/C(C)=C/CC/C(C)=C/CC[C@]1(C)C=Cc2cc(O)cc(C)c2O1 [Compound 1a, sargaol] | 18 ± 4 | 12 ± 3 | exhibited gastroprotective activity | 20.0 ± 3.6 | 52 * % | effect of indomethacin pre-treatment on the gastroprotective effect [4]: reversed significantly; effect of indomethacin pre-treatment on the gastroprotective effect ([4]; listed as sargaol): attenuated; effect of NEM pre-treatment on the gastroprotective effect [5]: reduced; also recorded: reversed significantly; effect of NEM pre-treatment on the gastroprotective effect ([5]; listed as sargaol): attenuated; effect of L-NAME pre-treatment on the gastroprotective effect [6]: has not attenuated; effect of ruthenium red pre-treatment on the gastroprotective effect [7]: did not reduce; gastroprotective activity ED50 [8]: 35 mg/kg
Cc1cc(O)cc2c1OC1(C)CCC3C(C)(CCC4C(C)(C)C(O)CCC43C)C1C2 (stereo not drawn) [Compound 3a, epitaondiol] | 29 ± 3 | – | exhibited gastroprotective activity | 16.7 ± 3.1 | 60 * % | IC50 [9]: 19 ± 4 µM; effect of indomethacin pre-treatment on the gastroprotective effect [4]: attenuated; effect of indomethacin pre-treatment on the gastroprotective effect ([4]; listed as epitaondiol): reversed significantly; effect of NEM pre-treatment on the gastroprotective effect [5]: reduced; effect of NEM pre-treatment on the gastroprotective effect ([5]; listed as epitaondiol): reversed significantly; effect of L-NAME pre-treatment on the gastroprotective effect [6]: reduced; effect of L-NAME pre-treatment on the gastroprotective effect ([6]; listed as epitaondiol): reversed significantly; effect of ruthenium red pre-treatment on the gastroprotective effect [7]: did not reduce; gastroprotective activity ED50 [8]: 40 mg/kg
COc1c(C)cc(OC(C)=O)cc1CC1C(C)CCC2C3(C)CCC(OC(C)=O)C(C)(C)C3=CCC12C (stereo not drawn) [Compound 7, O,C(3)-seco-9-ene-6β-taondiol diacetate] | 85 ± 5 | 102 ± 6 | – | – | – | –
Cc1c(OCC(F)(F)F)ccnc1C[S+]([O-])c1nc2ccccc2[nH]1 (stereo not drawn) [Lansoprazole, lansoprazole, reference compound] | 198 ± 5 | 392 ± 6 | – | 14.1 ± 3.6 | 66 * % | –
Cc1cc(O)cc2c1OC1(C)CCC3C(C)(CCC4C(C)(C)C(O)CCC43C)C1C2 (stereo not drawn) [Compound 5a, isoepitaondiol] | – | – | gastroprotective activity in similar way than positive control | 9.1 ± 3.6 | 78 * % | gastroprotective activity (in words) ([3]; listed as isoepitaondiol): exhibited gastroprotective activity; inhibition of the appearance of gastric mucosal lesions [3]: 78%; IC50 [10]: 42 ± 2 µM; IC50 [9]: 65 ± 3 µM
Cc1cc(O)cc2c1OC1(C2)C(C)CCC2C3(C)CCC(O)C(C)(C)C3CCC21C (stereo not drawn) [Compound 4a, stypodiol] | 153 ± 9 | 215 ± 8 | gastroprotective activity in similar way than positive control | 13.0 ± 4.0 | 69 * % | gastroprotective activity (in words) ([3]; listed as stypodiol): exhibited gastroprotective activity; inhibition of the appearance of gastric mucosal lesions [3]: 69%
CC(=O)Oc1cc(C)c2c(c1OC(C)=O)CC1(O2)C(C)CCC2C3(C)CCC(=O)C(C)(C)C3CCC21C (stereo not drawn) [Compound 11, 14-ketostypodiol diacetate] | 65 ± 4 | 102 ± 6 | inactive | 37.9 ± 7.3 | 9% | –
